Source: patent publication US20160289745A1, “NUCLEIC ACID ASSAY FOR DIAGNOSING OR […] PATHOGEN INFECTION IN A BODILY FLUID FROM A SUBJECT TREATED WITH AN ANTI-[…]” (priority 2012, published 2016)

Assays:
[1] = tested on: Mycobacterium tuberculosis Complex (MTC); conditions: human, in vivo
[2] = tested on: MTC strain (Mycobacterium tuberculosis); assay: Drug susceptibility testing of the patient's MTC strain; type: cell-based

Compound	analysis of DNA in urine [1]	drug susceptibility testing result ([2]; MTC strain of patient 21)	drug susceptibility testing result ([2]; MTC strain of patient 23)
Nc1ccc(C(=O)O)c(O)c1 [PAS, para-aminosalicylic acid]	negative	–	–
CCCc1cc(C(N)=S)ccn1 [Prothionamid]	–	resistance	resistance
[H]/N=C(/N)N[C@H]1[C@H](O)[C@@H](O)[C@H](O[C@@H]2O[C@@H](C)[C@](O)(C=O)[C@H]2O[C@@H]2O[C@@H](CO)[C@H](O)[C@@H](O)[C@@H]2NC)[C@@H](N/C(N)=N\[H])[C@@H]1O [Streptomycin]	–	resistance	resistance
NNC(=O)c1ccncc1 [Isoniazid]	–	resistance	resistance
